{
  "source": "patent US20110039721A1",
  "about": "“METHOD FOR PREDICTION ABOUT CARCINOGENICITY OF SUBSTANCE IN RODENT” (Chemicals Evaluation and Research Institute, priority 2007, published 2011)",
  "key": {"[1]": {"tested_on": "liver", "conditions": "in vivo; cited from earlier work"}, "[2]": {"conditions": "classification M+/M−; cited from earlier work"}, "[3]": {"tested_on": "mRNA expressed from the genes (A) to (D) in rat liver", "assay": "Behavior of genes (mRNA expression level, oligo-DNA microarray) in rat liver after 28-day oral administration", "type": "in vivo", "outline": "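Oral gavage, once daily × 28 days; male F344 SPF rats, 5 wk, n=4/group; vehicle controls given equal solvent volume. Liver excised day 28, total RNA purified. Significance: ≥1.5× or ≤1/1.5 of vehicle, direction concordant with other carcinogens.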"}, "[4]": {"tested_on": "rodent", "conditions": "classification C+/C−; cited from earlier work"}},
  "data": [
    {"compound": "O=CCCCC=O", "note": "[TS081, Glutaraldehyde]", "values": [
      {"measurement": "Liver carcinogenicity", "setting": "[1]", "result": "Cr−"},
      {"measurement": "Mutagenicity by Ames test", "setting": "[2]", "result": "M+"},
      {"measurement": "Behavior of gene caused by administration of chemical substance", "setting": "[3]; Gene No. 154, Rn.185941, group (C)", "result": "−"},
      {"measurement": "Behavior of gene caused by administration of chemical substance", "setting": "[3]; Gene No. 533, Rn.106184, group (C)", "result": "+"},
      {"measurement": "Behavior of gene caused by administration of chemical substance", "setting": "[3]; Gene No. 725, Rn.108075, group (C)", "result": "−"},
      {"measurement": "Behavior of gene caused by administration of chemical substance", "setting": "[3]; Gene No. 813, Rn.201760, group (C)", "result": "−"},
      {"measurement": "Behavior of gene caused by administration of chemical substance", "setting": "[3]; Gene No. 893, Rn.164817, group (C)", "result": "−"},
      {"measurement": "Behavior of gene caused by administration of chemical substance", "setting": "[3]; Gene No. 1119, Rn.9757, group (C)", "result": "−"},
      {"measurement": "Behavior of gene caused by administration of chemical substance", "setting": "[3]; Gene No. 1131, Rn.144946, group (C)", "result": "−"},
      {"measurement": "Behavior of gene caused by administration of chemical substance", "setting": "[3]; Gene No. 1163, Rn.11766, group (C)", "result": "−"},
      {"measurement": "Behavior of gene caused by administration of chemical substance", "setting": "[3]; Gene No. 1334, Rn.120914, group (C)", "result": "−"},
      {"measurement": "Behavior of gene caused by administration of chemical substance", "setting": "[3]; Gene No. 1494, Rn.1430, group (B)", "result": "−"},
      {"measurement": "Behavior of gene caused by administration of chemical substance", "setting": "[3]; Gene No. 1562, Rn.14744, group (C)", "result": "−"},
      {"measurement": "Behavior of gene caused by administration of chemical substance", "setting": "[3]; Gene No. 1741, Rn.1647, group (C)", "result": "−"},
      {"measurement": "Behavior of gene caused by administration of chemical substance", "setting": "[3]; Gene No. 1993, Rn.18728, group (C)", "result": "−"},
      {"measurement": "Behavior of gene caused by administration of chemical substance", "setting": "[3]; Gene No. 2026, Rn.167075, group (A)", "result": "−"},
      {"measurement": "Behavior of gene caused by administration of chemical substance", "setting": "[3]; Gene No. 2045, Rn.19329, group (B)", "result": "−"},
      {"measurement": "Behavior of gene caused by administration of chemical substance", "setting": "[3]; Gene No. 2203, Rn.21240, group (B)", "result": "−"},
      {"measurement": "Behavior of gene caused by administration of chemical substance", "setting": "[3]; Gene No. 2494, Rn.23969, group (C)", "result": "−"},
      {"measurement": "Behavior of gene caused by administration of chemical substance", "setting": "[3]; Gene No. 2546, Rn.24561, group (C)", "result": "−"},
      {"measurement": "Behavior of gene caused by administration of chemical substance", "setting": "[3]; Gene No. 3776, Rn.43232, group (C)", "result": "−"},
      {"measurement": "Behavior of gene caused by administration of chemical substance", "setting": "[3]; Gene No. 3929, Rn.4620, group (C)", "result": "−"},
      {"measurement": "Behavior of gene caused by administration of chemical substance", "setting": "[3]; Gene No. 4095, Rn.119024, group (C)", "result": "−"},
      {"measurement": "Behavior of gene caused by administration of chemical substance", "setting": "[3]; Gene No. 4218, Rn.167075, group (A)", "result": "−"},
      {"measurement": "Behavior of gene caused by administration of chemical substance", "setting": "[3]; Gene No. 4846, Rn.144554, group (A)", "result": "−"},
      {"measurement": "Behavior of gene caused by administration of chemical substance", "setting": "[3]; Gene No. 4973, Rn.118529, group (C)", "result": "+"},
      {"measurement": "Behavior of gene caused by administration of chemical substance", "setting": "[3]; Gene No. 5600, Rn.9836, group (A)", "result": "−"},
      {"measurement": "Behavior of gene caused by administration of chemical substance", "setting": "[3]; Gene No. 5634, Rn.9862, group (C)", "result": "−"},
      {"measurement": "Behavior of gene caused by administration of chemical substance", "setting": "[3]; Gene No. 5726, Rn.9939, group (D)", "result": "−"},
      {"measurement": "Behavior of gene caused by administration of chemical substance", "setting": "[3]; Gene No. 5878, Rn.143213, group (C)", "result": "−"},
      {"measurement": "Behavior of gene caused by administration of chemical substance", "setting": "[3]; Gene No. 6026, Rn.167685, group (C)", "result": "−"},
      {"measurement": "Behavior of gene caused by administration of chemical substance", "setting": "[3]; Gene No. 6182, Rn.5834, group (A)", "result": "−"},
      {"measurement": "Behavior of gene caused by administration of chemical substance", "setting": "[3]; Gene No. 6303, Rn.123063, group (C)", "result": "−"},
      {"measurement": "Behavior of gene caused by administration of chemical substance", "setting": "[3]; Gene No. 6620, Rn.120914, group (C)", "result": "−"},
      {"measurement": "Behavior of gene caused by administration of chemical substance", "setting": "[3]; Gene No. 6742, Rn.9779, group (C)", "result": "+"},
      {"measurement": "Carcinogenicity", "setting": "[4]", "result": "C−"}
    ]}
  ]
}
